From ChEMBL document CHEMBL3734671, “Design and synthesis of an in vivo-efficacious PIM3 kinase inhibitor as a candidate anti-pancreatic cancer agent” (Bioorg Med Chem Lett, 2015)
≈ marks a conversion by molar mass, not a printed value. Calls of active or inactive are those of the source. The rule behind the calls is not given here.

Columns and labels:
[1] = Growth inhibition of human PCI66 cells after 72 hrs by CCK-8 assay; assay type: functional, cell-based; conditions: PCI66, 72 h
[2] = Growth inhibition of human PCI66 cells at 10 uM after 72 hrs by CCK-8 assay; assay type: functional; conditions: PCI66, 72 h, read-out: GI
[3] = Growth inhibition of human MIAPaCa2 cells after 72 hrs by CCK-8 assay; assay type: functional, cell-based; conditions: MIA PaCa-2, 72 h
[4] = Growth inhibition of human L3.6PL cells after 72 hrs by CCK-8 assay; assay type: functional
[5] = Growth inhibition of human PCI35 cells after 72 hrs by CCK-8 assay; assay type: functional, cell-based; conditions: PCI35, 72 h
[6] = Growth inhibition of human MIAPaCa2 cells at 10 uM after 72 hrs by CCK-8 assay; assay type: functional; conditions: MIA PaCa-2, 72 h, read-out: GI
[7] = Growth inhibition of human PANC1 cells after 72 hrs by CCK-8 assay; assay type: functional, cell-based; conditions: PANC-1, 72 h
[8] = target: Serine/threonine-protein kinase pim-3 (Homo sapiens, UniProt Q86V86); assay: Inhibition of PIM3 (unknown origin) using FL-Peptide 1 (5-FAM-AKRRRLSSLRA-COOH) substrate incubated for 2 hrs by electrophoretic mobility shift assay
CYP2C9 = CYP2C9 (Homo sapiens, UniProt P11712); assay: Inhibition of CYP2C9 (unknown origin) at 10 uM; assay type: ADME
[9] = target: Serine/threonine-protein kinase pim-2 (Homo sapiens, UniProt Q9P1W9); assay: Inhibition of PIM2 (unknown origin) by electrophoretic mobility shift assay
[10] = Aqueous solubility in PBS buffer solution at pH 7.4; assay type: physicochemical
[11] = target: Receptor-type tyrosine-protein kinase FLT3 (Homo sapiens) (UniProt P36888); assay: Inhibition of FLT3 (unknown origin) at 200 nM by electrophoretic mobility shift assay
CYP2C19 = CYP2C19 (Homo sapiens, UniProt P33261); assay: Inhibition of CYP2C19 (unknown origin) at 10 uM; assay type: ADME
CYP3A4 = CYP3A4 (Homo sapiens, UniProt P08684); assay: Inhibition of CYP3A4 (unknown origin) at 10 uM; assay type: ADME
hERG (KCNH2) = hERG (KCNH2) (Homo sapiens, UniProt Q12809); assay: Inhibition of human ERG at 10 uM by patch-clamp method
CYP1A2 = target: T1, CYP1A2 (Homo sapiens, UniProt P05177); assay: Inhibition of CYP1A2 (unknown origin) at 10 uM; assay type: ADME
T1 sequence (P05177 whole entry): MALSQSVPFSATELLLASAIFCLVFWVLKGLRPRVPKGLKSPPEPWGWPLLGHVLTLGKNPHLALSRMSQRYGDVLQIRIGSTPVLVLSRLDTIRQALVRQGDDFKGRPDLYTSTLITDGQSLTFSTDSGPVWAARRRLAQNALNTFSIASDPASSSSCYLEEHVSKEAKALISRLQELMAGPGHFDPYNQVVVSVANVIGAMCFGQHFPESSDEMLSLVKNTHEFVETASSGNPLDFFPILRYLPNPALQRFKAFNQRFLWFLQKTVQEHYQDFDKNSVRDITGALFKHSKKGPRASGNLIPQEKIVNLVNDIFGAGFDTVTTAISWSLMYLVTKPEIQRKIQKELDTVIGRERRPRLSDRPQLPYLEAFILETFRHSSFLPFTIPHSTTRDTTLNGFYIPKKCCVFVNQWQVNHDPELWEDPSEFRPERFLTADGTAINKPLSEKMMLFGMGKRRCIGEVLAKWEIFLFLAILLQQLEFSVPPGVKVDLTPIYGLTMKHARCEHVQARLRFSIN

CYP2D6 = CYP2D6 (Homo sapiens, UniProt P10635); assay: Inhibition of CYP2D6 (unknown origin) at 10 uM; assay type: ADME
Chain of CYP2D6 (P10635 whole entry): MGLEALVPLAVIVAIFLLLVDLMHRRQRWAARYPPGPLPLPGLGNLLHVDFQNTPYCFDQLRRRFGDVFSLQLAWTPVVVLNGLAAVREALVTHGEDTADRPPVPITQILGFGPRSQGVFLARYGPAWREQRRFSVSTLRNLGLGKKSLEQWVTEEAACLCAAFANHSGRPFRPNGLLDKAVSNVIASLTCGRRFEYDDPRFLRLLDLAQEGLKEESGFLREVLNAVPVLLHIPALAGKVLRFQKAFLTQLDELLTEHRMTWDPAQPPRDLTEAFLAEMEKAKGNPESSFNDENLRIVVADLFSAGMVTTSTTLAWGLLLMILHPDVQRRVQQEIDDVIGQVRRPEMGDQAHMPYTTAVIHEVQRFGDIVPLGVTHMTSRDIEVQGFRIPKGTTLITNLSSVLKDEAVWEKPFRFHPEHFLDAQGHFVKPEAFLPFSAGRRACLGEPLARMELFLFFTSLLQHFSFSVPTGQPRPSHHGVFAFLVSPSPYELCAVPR

Chain of CYP2C9 (P11712 whole entry): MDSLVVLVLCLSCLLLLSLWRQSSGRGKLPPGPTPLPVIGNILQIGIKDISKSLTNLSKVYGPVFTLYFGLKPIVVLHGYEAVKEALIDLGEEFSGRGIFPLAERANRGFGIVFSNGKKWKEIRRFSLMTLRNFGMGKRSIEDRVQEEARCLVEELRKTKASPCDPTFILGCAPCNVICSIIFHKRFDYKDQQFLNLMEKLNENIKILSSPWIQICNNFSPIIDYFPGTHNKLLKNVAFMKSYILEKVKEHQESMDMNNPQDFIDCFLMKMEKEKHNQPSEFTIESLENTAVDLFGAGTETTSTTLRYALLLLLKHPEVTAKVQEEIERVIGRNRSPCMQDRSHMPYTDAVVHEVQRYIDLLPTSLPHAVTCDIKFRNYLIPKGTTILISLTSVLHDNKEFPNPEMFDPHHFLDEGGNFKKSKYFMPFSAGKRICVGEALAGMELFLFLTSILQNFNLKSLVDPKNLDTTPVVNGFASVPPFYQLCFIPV
Chain of Serine/threonine-protein kinase pim-2 (Q9P1W9 whole entry): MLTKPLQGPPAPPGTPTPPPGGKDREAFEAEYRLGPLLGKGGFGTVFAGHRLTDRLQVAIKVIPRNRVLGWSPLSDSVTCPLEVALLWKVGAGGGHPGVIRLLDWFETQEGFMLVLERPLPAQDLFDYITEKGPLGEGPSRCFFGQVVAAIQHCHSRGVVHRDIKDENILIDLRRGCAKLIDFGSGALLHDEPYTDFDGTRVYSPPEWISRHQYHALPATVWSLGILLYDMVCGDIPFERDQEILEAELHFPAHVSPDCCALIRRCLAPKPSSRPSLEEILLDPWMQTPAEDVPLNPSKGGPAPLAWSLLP
Chain of Receptor-type tyrosine-protein kinase FLT3 (Homo sapiens) (P36888 whole entry): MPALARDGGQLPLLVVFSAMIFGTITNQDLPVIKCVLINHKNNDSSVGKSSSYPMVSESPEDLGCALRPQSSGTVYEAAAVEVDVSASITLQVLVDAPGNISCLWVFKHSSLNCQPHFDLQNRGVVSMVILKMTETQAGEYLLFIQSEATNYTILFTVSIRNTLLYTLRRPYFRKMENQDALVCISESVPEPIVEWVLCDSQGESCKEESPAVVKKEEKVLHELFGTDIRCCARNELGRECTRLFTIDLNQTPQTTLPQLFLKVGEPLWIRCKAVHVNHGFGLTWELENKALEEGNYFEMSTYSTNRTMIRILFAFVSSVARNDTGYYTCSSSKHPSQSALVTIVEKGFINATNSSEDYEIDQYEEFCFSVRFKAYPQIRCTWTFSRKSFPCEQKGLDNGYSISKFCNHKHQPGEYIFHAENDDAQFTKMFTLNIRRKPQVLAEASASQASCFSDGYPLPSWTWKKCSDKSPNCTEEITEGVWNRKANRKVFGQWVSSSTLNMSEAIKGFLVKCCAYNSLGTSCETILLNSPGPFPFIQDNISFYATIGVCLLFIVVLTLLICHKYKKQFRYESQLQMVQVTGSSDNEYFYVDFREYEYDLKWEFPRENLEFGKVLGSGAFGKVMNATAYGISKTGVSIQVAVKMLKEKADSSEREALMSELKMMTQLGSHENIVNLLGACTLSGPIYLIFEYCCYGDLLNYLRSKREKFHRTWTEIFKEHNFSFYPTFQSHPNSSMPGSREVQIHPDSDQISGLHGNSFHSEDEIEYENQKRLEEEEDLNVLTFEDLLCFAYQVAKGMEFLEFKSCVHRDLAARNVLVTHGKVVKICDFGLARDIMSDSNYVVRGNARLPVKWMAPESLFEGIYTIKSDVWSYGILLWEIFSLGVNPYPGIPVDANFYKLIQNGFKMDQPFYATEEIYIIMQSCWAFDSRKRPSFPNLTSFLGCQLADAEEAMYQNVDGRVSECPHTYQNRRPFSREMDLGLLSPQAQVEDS
Chain of CYP3A4 (P08684 whole entry): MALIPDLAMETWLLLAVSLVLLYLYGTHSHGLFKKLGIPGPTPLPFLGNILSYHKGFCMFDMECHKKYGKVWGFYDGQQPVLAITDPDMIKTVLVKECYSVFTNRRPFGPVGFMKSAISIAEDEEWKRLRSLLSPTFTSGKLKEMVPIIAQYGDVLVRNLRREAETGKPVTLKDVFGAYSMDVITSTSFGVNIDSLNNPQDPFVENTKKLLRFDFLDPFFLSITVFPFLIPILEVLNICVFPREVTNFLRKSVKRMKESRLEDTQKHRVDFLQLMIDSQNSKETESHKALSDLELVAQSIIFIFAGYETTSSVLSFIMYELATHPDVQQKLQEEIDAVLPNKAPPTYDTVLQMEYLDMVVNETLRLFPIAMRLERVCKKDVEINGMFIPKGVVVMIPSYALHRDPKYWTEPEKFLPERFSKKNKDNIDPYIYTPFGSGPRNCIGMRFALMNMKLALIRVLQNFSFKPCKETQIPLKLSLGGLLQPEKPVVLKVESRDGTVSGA
Chain of CYP2C19 (P33261 whole entry): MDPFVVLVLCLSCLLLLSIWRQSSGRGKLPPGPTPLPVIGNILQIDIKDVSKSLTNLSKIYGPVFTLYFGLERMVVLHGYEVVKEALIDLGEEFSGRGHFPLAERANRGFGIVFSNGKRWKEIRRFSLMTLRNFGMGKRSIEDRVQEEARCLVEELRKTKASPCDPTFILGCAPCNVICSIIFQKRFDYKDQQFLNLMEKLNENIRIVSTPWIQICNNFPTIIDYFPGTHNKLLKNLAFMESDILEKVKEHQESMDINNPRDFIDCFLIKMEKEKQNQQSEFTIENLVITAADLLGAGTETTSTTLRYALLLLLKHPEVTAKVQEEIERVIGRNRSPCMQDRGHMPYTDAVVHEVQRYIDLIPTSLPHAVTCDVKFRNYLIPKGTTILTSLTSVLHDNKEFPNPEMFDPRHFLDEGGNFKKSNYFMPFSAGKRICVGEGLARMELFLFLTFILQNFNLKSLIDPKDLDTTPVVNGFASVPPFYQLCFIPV
Chain of hERG (KCNH2) (Q12809 whole entry): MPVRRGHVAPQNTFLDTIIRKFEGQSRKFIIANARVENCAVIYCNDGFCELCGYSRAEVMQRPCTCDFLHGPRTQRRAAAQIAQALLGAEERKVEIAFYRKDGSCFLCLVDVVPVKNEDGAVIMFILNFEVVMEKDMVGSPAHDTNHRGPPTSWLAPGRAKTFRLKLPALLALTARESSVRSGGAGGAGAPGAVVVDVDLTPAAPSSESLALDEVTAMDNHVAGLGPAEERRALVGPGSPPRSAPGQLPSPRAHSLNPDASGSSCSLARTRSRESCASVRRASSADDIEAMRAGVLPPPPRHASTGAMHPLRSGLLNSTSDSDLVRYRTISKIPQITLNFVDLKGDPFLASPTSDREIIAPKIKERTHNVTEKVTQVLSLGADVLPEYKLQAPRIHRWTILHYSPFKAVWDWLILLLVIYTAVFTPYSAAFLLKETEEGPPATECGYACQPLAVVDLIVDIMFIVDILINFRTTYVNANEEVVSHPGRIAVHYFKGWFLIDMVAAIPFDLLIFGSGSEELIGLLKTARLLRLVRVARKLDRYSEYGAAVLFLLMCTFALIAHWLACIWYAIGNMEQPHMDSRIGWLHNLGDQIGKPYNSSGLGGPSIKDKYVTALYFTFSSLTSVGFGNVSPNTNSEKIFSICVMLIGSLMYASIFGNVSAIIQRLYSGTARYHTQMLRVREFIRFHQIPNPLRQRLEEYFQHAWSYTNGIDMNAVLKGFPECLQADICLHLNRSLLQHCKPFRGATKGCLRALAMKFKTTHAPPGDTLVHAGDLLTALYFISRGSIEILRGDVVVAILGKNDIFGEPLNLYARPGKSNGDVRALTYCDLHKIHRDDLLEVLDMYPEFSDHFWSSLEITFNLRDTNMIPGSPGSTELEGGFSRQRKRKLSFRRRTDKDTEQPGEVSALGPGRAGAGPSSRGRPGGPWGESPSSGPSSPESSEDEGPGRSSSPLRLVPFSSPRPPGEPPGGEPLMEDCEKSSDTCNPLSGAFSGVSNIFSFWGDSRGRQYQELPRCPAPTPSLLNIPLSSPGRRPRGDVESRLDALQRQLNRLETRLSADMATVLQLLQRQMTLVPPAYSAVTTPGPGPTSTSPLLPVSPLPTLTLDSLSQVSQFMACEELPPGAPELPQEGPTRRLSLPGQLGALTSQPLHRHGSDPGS

Compound | IC50 [7] | IC50 [8] | also measured
C#Cc1cccc(Nc2ncnc3cc(OCCOC)c(OCCOC)cc23)c1 [ERLOTINIB] | 3.1 µM |  | IC50 [1]: > 10 µM; inhibition of growth at 10 µM [2]: 12%; IC50 [3]: > 10 µM; IC50 [4]: 4 µM; IC50 [5]: 7.7 µM; inhibition of growth at 10 µM [6]: < 1%
COc1ccc2c(c1CN1CCNC[C@@H]1C)O/C(=C\c1n[nH]c3ncccc13)C2=O | > 10 µM | 0.0011 µM | 
COc1ccc2c(c1CN1CCNCC1)O/C(=C\c1n[nH]c3ccccc13)C2=O | > 10 µM | 0.025 µM | IC50 [1]: > 10 µM; inhibition at 10 µM (CYP2C9): < 1%; IC50 [3]: > 10 µM; IC50 [4]: > 10 µM; IC50 [9]: > 1 µM; IC50 [5]: > 10 µM; solubility [10]: 187 µM (≈ 73 µg/mL); inhibition [11]: Active
COc1ccc2c(c1CN1CCN[C@H](C)C1)O/C(=C\c1n[nH]c3ncccc13)C2=O | 8.4 µM | 0.004 µM | 
COCCOc1ccc2c(c1C(C)N1CCNCC1)O/C(=C\c1n[nH]c3ncccc13)C2=O (centres undefined) | 3.3 µM | 0.003 µM | inhibition at 10 µM (CYP2C19): < 1%; inhibition at 10 µM (CYP3A4): < 1%; inhibition at 10 µM (CYP2C9): < 1%; inhibition at 10 µM (hERG (KCNH2)): 16%; solubility [10]: 196 µM (≈ 88.1 µg/mL); inhibition at 10 µM (CYP1A2): < 1%; inhibition at 10 µM (CYP2D6): 83%
COc1ccc2c(c1CN1CCNCC1)O/C(=C\c1c[nH]c3cccnc13)C2=O | > 10 µM | > 2 µM | 
COc1ccc2c(c1CN1CCNCC1)O/C(=C\c1c[nH]c3ncccc13)C2=O | 5.2 µM | 0.0013 µM | 
COc1ccc2c(c1CN1CCNCC1)O/C(=C\c1c[nH]c3ccncc13)C2=O | > 10 µM | 0.13 µM | 
CC(c1c(OCCO)ccc2c1O/C(=C\c1n[nH]c3ncccc13)C2=O)N1CCNCC1 (centres undefined) | > 10 µM | 0.0064 µM | 
COc1ccc2c(c1CN1CCN[C@@H](C)C1)O/C(=C\c1n[nH]c3ncccc13)C2=O | 6.9 µM | 0.0008 µM | 
COc1ccc2c(c1CN1CCNC[C@H]1C)O/C(=C\c1n[nH]c3ncccc13)C2=O | > 10 µM | 0.018 µM | 
COc1ccc2c(c1CN1CCNCC1)O/C(=C\c1c[nH]c3cnccc13)C2=O | > 10 µM | 0.044 µM | 
